Patent US9796711B2, “Substituted pyrazolo[3,4-b]pyridin-6-carboxylic acids and method of use” (AbbVie S.àr.l., priority 2015, dated 2017)

Target: T1, ΔF508-CFTR (Homo sapiens, UniProt P13569, DEL508-508)
T1 construct: host or cells: CFBE41o-, doxycycline-inducible
Test: CFTR cell surface levels using HRP-tagged ΔF508-CFTR expressing CFBE cells, in the presence of a co-corrector
Assay type: cell-based
Settings: HRP-tagged ΔF508-CFTR expressing CFBE cells, in the presence of 3 μM co-corrector; for EC50: read-out: EC50
Text: Measuring CFTR Cell Surface Levels Using HRP-Tagged AF508-CFTR Expressing CFBE Cells
The HRP-tagged AF508-CFTR cell assay measures the expression of CFTR-ΔF508 at the plasma membrane. CFTR-ΔF508 has a folding defect leading to absence of protein at the plasma membrane. This assay is used to evaluate the capacity of compounds to increase the expression of CFTR-ΔF508 at the plasma membrane. The CFTR-ΔF508 is tagged with HRP (horse radish peroxidase enzyme) within the ECL4 (Extracellular loop 4) of CFTR (Phuan, P.-W. et al. Synergy-based small-molecule screen using a human lung epithelial cell line yields AF508-CFTR correctors that augment VX-809 maximal efficacy. Mol. Pharmacol. 86, 42-51 (2014)). When HRP-tagged AF508-CFTR is present at the plasma membrane, the HRP enzyme activity can be measured. The amount of CFTR-ΔF508 that can be rescued to the plasma membrane is correlated with the amount of functional enzyme that can be measured.
There are several ways to measure the capacity of compounds to rescue CFTR-ΔF508 to the plasma membrane; either compounds are evaluated on their own and the impact on plasma membrane levels is measured or compounds are evaluated in combination with a co-corrector, i.e. a compound that rescues CFTR-ΔF508 to the plasma membrane but rescue can be enhanced by addition of compounds due to a complementary mode of action.
Activity of Compounds in Combination with Co-Corrector:
For this purpose doxycycline-inducible AF508-CFTR-HRP expressing CFBE4lo-cells (obtained from Gergely Lukacs, McGill University) were maintained in MEM (Minimum Essential Medium, Gibco; 31095) supplemented with 10% fetal bovine serum (Hyclone; SV30160.03) under puromycin (3 μg/mL) and G418 selection (0.2 mg/mL). For compound testing, cells were seeded at 4000 cells/well in white 384-well plates (Greiner; 781080) in 50 μL of medium containing 0.5 μg/mL doxycycline and incubated for 68 hours at 37° C., 5% CO2. On day four, 10 μL of test compounds diluted in PBS (phosphate buffered saline) were added to the plates at a final DMSO concentration of 0.1%. In order to measure compound synergy with a co-corrector, 3 μM co-corrector (3-[(2R,4R)-4-({[1-(2,2-difluoro-1,3-benzodioxol-5-yl)cyclopropyl]carbonyl}amino)-7-methoxy-3,4-dihydro-2H-chromen-2-yl]benzoic acid) was added along with test compounds. All compound plates contained negative controls (DMSO) and positive controls (3 μM co-corrector). Cell plates were incubated at 33° C., 5% CO2 for 20 hours. On day five, the cells were washed five times with phosphate-buffered saline, and HRP activity was assayed by the addition of 50 μL/well of HRP substrate (SuperSignal™ West Pico Chemiluminescent Substrate, Thermo Scientific; 34080). After incubation for 15 minutes in the dark, the chemiluminescence was measured using a plate reader (EnVision®, Perkin Elmer). Raw data were normalized to percentage activity values using the equation: 100×(Sample−Negative control)/(Positive control−Negative Control).

T1 sequence (P13569 with tags, fused parts or gaps DEL508-508): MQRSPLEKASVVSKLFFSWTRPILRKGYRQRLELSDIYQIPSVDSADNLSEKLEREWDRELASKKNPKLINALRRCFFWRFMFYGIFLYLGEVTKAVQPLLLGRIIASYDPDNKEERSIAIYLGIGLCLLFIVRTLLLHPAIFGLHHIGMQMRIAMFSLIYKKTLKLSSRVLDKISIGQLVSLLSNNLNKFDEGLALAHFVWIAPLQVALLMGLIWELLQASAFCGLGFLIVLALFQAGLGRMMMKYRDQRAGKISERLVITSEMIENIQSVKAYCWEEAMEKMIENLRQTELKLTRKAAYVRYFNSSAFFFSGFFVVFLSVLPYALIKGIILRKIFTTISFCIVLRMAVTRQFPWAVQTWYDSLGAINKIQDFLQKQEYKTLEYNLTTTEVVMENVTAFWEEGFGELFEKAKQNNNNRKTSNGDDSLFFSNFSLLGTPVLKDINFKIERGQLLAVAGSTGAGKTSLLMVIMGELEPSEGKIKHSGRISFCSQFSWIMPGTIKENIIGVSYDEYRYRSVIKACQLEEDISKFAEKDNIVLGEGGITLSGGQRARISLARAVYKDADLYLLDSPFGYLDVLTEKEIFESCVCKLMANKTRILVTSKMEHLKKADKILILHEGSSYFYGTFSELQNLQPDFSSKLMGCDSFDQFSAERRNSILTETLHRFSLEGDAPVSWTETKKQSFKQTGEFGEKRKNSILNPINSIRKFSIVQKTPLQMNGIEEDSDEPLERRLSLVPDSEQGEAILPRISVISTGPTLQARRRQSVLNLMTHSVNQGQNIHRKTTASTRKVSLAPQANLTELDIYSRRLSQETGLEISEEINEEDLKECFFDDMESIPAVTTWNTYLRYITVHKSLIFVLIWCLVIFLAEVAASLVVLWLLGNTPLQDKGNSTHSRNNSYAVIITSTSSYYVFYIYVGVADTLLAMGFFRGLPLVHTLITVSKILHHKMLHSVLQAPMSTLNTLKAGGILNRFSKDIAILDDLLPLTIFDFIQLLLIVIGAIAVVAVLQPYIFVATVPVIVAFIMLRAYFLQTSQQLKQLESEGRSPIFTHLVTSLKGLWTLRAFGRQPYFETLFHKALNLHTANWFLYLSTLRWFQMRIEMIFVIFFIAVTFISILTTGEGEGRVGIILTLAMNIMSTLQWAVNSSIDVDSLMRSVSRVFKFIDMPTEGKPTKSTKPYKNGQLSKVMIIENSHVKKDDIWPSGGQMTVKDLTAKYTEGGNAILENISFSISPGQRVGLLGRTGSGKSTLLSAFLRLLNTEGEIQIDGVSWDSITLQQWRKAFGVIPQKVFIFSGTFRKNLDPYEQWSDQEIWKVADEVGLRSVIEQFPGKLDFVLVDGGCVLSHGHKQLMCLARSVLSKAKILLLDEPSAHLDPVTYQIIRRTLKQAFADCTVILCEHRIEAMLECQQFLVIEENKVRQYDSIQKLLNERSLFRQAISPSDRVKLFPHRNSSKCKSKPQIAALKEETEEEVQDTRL

Q: `CC(C)(O)C1CCN(c2cc(C(=O)O)nc3c2c(C2CCC2)nn3-c2ccccc2)CC1` [compound 659, 3-cyclobutyl-4-[4-(2-hydroxypropan-2-yl)piperidin-1-yl]-1-phenyl-1H-pyrazolo[3,4-b]pyridine-6-carboxylic acid] was tested. Which “% Activation” value did it give?
A: 424.5%

Q: And the EC50?
A: 69.5 nM

Q: `CC(C)c1nn(-c2ccc(F)cc2)c2nc(C(=O)O)cc(N3CCC(N(C)C)CC3)c12` [compound 660, 4-[4-(dimethylamino)piperidin-1-yl]-1-(4-fluorophenyl)-3-(propan-2-yl)-1H-pyrazolo[3,4-b]pyridine-6-carboxylic acid] was tested. Which “% Activation” value did it give?
A: 284.47%

Q: And the EC50?
A: 3330 nM

Q: Which “% Activation” value does the source give for `CC(=O)N1CCC(COc2cc(C(=O)O)nc3c2c(C(C)C)nn3-c2ccc(F)cc2)CC1` [compound 662, 4-[(1-acetylpiperidin-4-yl)methoxy]-1-(4-fluorophenyl)-3-(propan-2-yl)-1H-pyrazolo[3,4-b]pyridine-6-carboxylic acid] here?
A: 310.6%

Q: What about the EC50 of the same compound?
A: 2300 nM

Q: `COC(=O)N1CCC(COc2cc(C(=O)O)nc3c2c(C(C)C)nn3-c2ccc(F)cc2)CC1` [compound 663, 1-(4-fluorophenyl)-4-{[1-(methoxycarbonyl)piperidin-4-yl]methoxy}-3-(propan-2-yl)-1H-pyrazolo[3,4-b]pyridine-6-carboxylic acid] was tested. Which “% Activation” value did it give?
A: 315.5%

Q: What about the EC50 of the same compound?
A: 90.9 nM

Q: For `CC(C)c1nn(-c2ccc(F)cc2)c2nc(C(=O)O)cc(NC(=O)C3CCOCC3)c12` [compound 664, 1-(4-fluorophenyl)-4-[(oxane-4-carbonyl)amino]-3-(propan-2-yl)-1H-pyrazolo[3,4-b]pyridine-6-carboxylic acid], which “% Activation” value is on record?
A: 120.6%

Q: What about the EC50 of the same compound?
A: > 10000 nM

Q: With `N#CCC1(O)CCN(c2cc(C(=O)O)nc3c2c(C2CCC2)nn3-c2ccccc2)CC1` [compound 665, 4-[4-(cyanomethyl)-4-hydroxypiperidin-1-yl]-3-cyclobutyl-1-phenyl-1H-pyrazolo[3,4-b]pyridine-6-carboxylic acid] as the compound, how does the “% Activation” value read?
A: 330.43%

Q: What about the EC50 of the same compound?
A: 1860 nM

Q: What does the source list for `CCOCC1(F)CCN(c2cc(C(=O)O)nc3c2c(C(C)C)nn3-c2ccc(F)cc2)CC1` [compound 666, 4-[4-(ethoxymethyl)-4-fluoropiperidin-1-yl]-1-(4-fluorophenyl)-3-(propan-2-yl)-1H-pyrazolo[3,4-b]pyridine-6-carboxylic acid]?
A: % Activation: 338.35%; EC50: 253 nM

Q: For `COCCOCC1(F)CCN(c2cc(C(=O)O)nc3c2c(C(C)C)nn3-c2ccc(F)cc2)CC1` [compound 667, 4-{4-fluoro-4-[(2-methoxyethoxy)methyl]piperidin-1-yl}-1-(4-fluorophenyl)-3-(propan-2-yl)-1H-pyrazolo[3,4-b]pyridine-6-carboxylic acid], which “% Activation” value is on record?
A: 339.85%

Q: And the EC50?
A: 462 nM

Q: What does the source list for `CC(C)c1nn(-c2ccc(F)cc2)c2nc(C(=O)O)cc(N3CC[C@@H](O)[C@H](F)C3)c12` [compound 668, 4-[(3R,4R)-3-fluoro-4-hydroxypiperidin-1-yl]-1-(4-fluorophenyl)-3-(propan-2-yl)-1H-pyrazolo[3,4-b]pyridine-6-carboxylic acid]?
A: % Activation: 341.65%; EC50: 2360 nM

Q: What does the source list for `COCC1(F)CCN(c2cc(C(=O)O)nc3c2c(C(C)C)nn3-c2ccc(F)cc2)CC1` [compound 669, 4-[4-fluoro-4-(methoxymethyl)piperidin-1-yl]-1-(4-fluorophenyl)-3-(propan-2-yl)-1H-pyrazolo[3,4-b]pyridine-6-carboxylic acid]?
A: % Activation: 315.5%; EC50: 795 nM

Q: How did the “% Activation” value turn out when `COCCOCC1(F)CCCN(c2cc(C(=O)O)nc3c2c(C(C)C)nn3-c2ccc(F)cc2)C1` (stereo not shown) [compound 670, 4-{3-fluoro-3-[(2-methoxyethoxy)methyl]piperidin-1-yl}-1-(4-fluorophenyl)-3-(propan-2-yl)-1H-pyrazolo[3,4-b]pyridine-6-carboxylic acid] was run?
A: 397.3%

Q: What about the EC50 of the same compound?
A: 218 nM

Q: Which results are given for `O=C(O)c1cc(N2CCS(=O)(=O)CC2)c2c(C3CCC3)nn(-c3ccccc3)c2n1` [compound 673, 3-cyclobutyl-4-(1,1-dioxo-1λ^6,4-thiazinan-4-yl)-1-phenyl-1H-pyrazolo[3,4-b]pyridine-6-carboxylic acid]?
A: % Activation: 163.25%; EC50: 3330 nM

Q: Which results are given for `O=C(O)c1cc(N2CC(N3CCCC3)C2)c2c(C3CCC3)nn(-c3ccccc3)c2n1` [compound 680, 3-cyclobutyl-1-phenyl-4-[3-(pyrrolidin-1-yl)azetidin-1-yl]-1H-pyrazolo[3,4-b]pyridine-6-carboxylic acid]?
A: % Activation: 236.7%; EC50: 1360 nM

Q: Which results are given for `CC(C)N1CCCN(c2cc(C(=O)O)nc3c2c(C2CCC2)nn3-c2ccccc2)CC1` [compound 691, 3-cyclobutyl-1-phenyl-4-[4-(propan-2-yl)-1,4-diazepan-1-yl]-1H-pyrazolo[3,4-b]pyridine-6-carboxylic acid]?
A: % Activation: 280.7%; EC50: 5000 nM

Q: How did the “% Activation” value turn out when `CN1CCN(CCC2CCN(c3cc(C(=O)O)nc4c3c(C3CCC3)nn4-c3ccccc3)CC2)CC1` [compound 695, 3-cyclobutyl-4-{4-[2-(4-methylpiperazin-1-yl)ethyl]piperidin-1-yl}-1-phenyl-1H-pyrazolo[3,4-b]pyridine-6-carboxylic acid] was run?
A: 385.5%

Q: What about the EC50 of the same compound?
A: 119 nM

Q: For `CCOCC(=O)N1CCN(c2cc(C(=O)O)nc3c2c(C2CCC2)nn3-c2ccccc2)CC1` [compound 696, 3-cyclobutyl-4-[4-(ethoxyacetyl)piperazin-1-yl]-1-phenyl-1H-pyrazolo[3,4-b]pyridine-6-carboxylic acid], which “% Activation” value is on record?
A: 346.8%

Q: And the EC50?
A: 1670 nM

Q: Which “% Activation” value does the source give for `O=C(O)c1cc(N2CCC[C@@H](N3CCCC3=O)C2)c2c(C3CCC3)nn(-c3ccccc3)c2n1` [compound 697, 3-cyclobutyl-4-[(3R)-3-(2-oxopyrrolidin-1-yl)piperidin-1-yl]-1-phenyl-1H-pyrazolo[3,4-b]pyridine-6-carboxylic acid] here?
A: 217.3%

Q: What about the EC50 of the same compound?
A: 1270 nM

Q: Which “% Activation” value does the source give for `CC1(N2CCCCC2)CCN(c2cc(C(=O)O)nc3c2c(C2CCC2)nn3-c2ccccc2)CC1` [compound 698, 3-cyclobutyl-4-(4′-methyl [1,4′-bipiperidin]-1′-yl)-1-phenyl-1H-pyrazolo[3,4-b]pyridine-6-carboxylic acid] here?
A: 242.7%

Q: What about the EC50 of the same compound?
A: 745 nM

Q: For `O=C(O)c1cc(N2CCC3(CC2)OCCO3)c2c(C3CCC3)nn(-c3ccccc3)c2n1` [compound 700, 3-cyclobutyl-4-(1,4-dioxa-8-azaspiro[4.5]decan-8-yl)-1-phenyl-1H-pyrazolo[3,4-b]pyridine-6-carboxylic acid], which “% Activation” value is on record?
A: 290.9%

Q: What about the EC50 of the same compound?
A: 128 nM

Q: With `CC(C)COC(=O)N1CCN(c2cc(C(=O)O)nc3c2c(C2CCC2)nn3-c2ccccc2)CC1` [compound 701, 3-cyclobutyl-4-{4-[(2-methylpropoxy)carbonyl]piperazin-1-yl}-1-phenyl-1H-pyrazolo[3,4-b]pyridine-6-carboxylic acid] as the compound, how does the “% Activation” value read?
A: 498.5%

Q: What about the EC50 of the same compound?
A: 36.1 nM

Q: Which results are given for `CN1CCCN(c2cc(C(=O)O)nc3c2c(C2CCC2)nn3-c2ccccc2)CC1` [compound 702, 3-cyclobutyl-4-(4-methyl-1,4-diazepan-1-yl)-1-phenyl-1H-pyrazolo[3,4-b]pyridine-6-carboxylic acid]?
A: % Activation: 214.1%; EC50: 1670 nM

Q: Which results are given for `CC(=O)N1CCN(c2cc(C(=O)O)nc3c2c(C2CCC2)nn3-c2ccccc2)CC1` [compound 703, 4-(4-acetylpiperazin-1-yl)-3-cyclobutyl-1-phenyl-1H-pyrazolo[3,4-b]pyridine-6-carboxylic acid]?
A: % Activation: 374.6%; EC50: 386 nM

Q: Which “% Activation” value does the source give for `COCCCN1CCN(c2cc(C(=O)O)nc3c2c(C2CCC2)nn3-c2ccccc2)CC1` [compound 704, 3-cyclobutyl-4-[4-(3-methoxypropyl)piperazin-1-yl]-1-phenyl-1H-pyrazolo[3,4-b]pyridine-6-carboxylic acid] here?
A: 344.1%

Q: And the EC50?
A: 409 nM
